Measurements from patent US20170037028A1 (BAYER PHARMA AKTIENGESELLSCHAFT, priority 2013, published 2017).

These compounds were tested against T1, GLUT1 (Homo sapiens, UniProt P11166) (assay: Indirect measurement of GLUT1 activity by quantification of intracellular ATP levels (glucose induced ATP increase)). Conditions: read-out: IC50 regarding glucose induced ATP increase (GLUT1 inhibition).
T1 sequence (P11166 1-492): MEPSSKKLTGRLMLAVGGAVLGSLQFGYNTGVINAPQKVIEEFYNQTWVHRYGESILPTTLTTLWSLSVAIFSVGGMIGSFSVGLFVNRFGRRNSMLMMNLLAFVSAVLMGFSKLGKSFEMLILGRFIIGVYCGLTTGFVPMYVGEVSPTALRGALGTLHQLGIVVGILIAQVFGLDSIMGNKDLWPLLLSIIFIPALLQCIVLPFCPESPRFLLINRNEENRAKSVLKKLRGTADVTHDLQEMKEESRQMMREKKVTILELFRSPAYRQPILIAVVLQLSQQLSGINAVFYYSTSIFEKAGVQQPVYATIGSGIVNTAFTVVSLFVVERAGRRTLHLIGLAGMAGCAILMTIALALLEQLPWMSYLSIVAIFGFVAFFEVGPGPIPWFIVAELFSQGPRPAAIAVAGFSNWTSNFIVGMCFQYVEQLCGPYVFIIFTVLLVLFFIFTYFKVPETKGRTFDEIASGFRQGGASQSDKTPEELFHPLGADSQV
Assay type: cell-based
Set-up: endogenous in cells; host or cells: DLD1 or CHO-K1
In short: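 DLD1 or CHO-K1 cells were starved overnight in glucose-free medium with 1% FCS, then combined with an oxidative phosphorylation inhibitor. GLUT1 activity was read as glucose-induced ATP increase, GLUT2 as fructose-induced. Intracellular ATP was quantified by CellTiter-Glo luminescence.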

Row | SMILES | IC50 [nM]
1 | COC(=O)c1ccc(Cn2nc(C)c(NC(=O)c3cc(C(F)(F)F)nc4ccc(Br)cc34)c2C)cc1 [Example 131, methyl 4-{[4-({[6-bromo-2-(trifluoromethyl)quinolin-4-yl]carbonyl}amino)-3,5-dimethyl-1H-pyrazol-1-yl]methyl}benzoate] | 8.3
2 | Cc1nn(Cc2ccc(C(=O)Nc3ccccc3)cc2)c(C)c1NC(=O)c1cc(C(F)(F)F)nc2ccc(Br)cc12 [Example 134, 6-bromo-N-{3,5-dimethyl-1-[4-(phenylcarbamoyl)benzyl]-1H-pyrazol-4-yl}-2-(trifluoromethyl)quinoline-4-carboxamide] | 6.6
3 | CNC(=O)c1ccc(Cn2nc(C)c(NC(=O)c3cc(C(F)(F)F)nc4ccc(Br)cc34)c2C)cc1 [Example 135, 6-bromo-N-{3,5-dimethyl-1-[4-(methylcarbamoyl)benzyl]-1H-pyrazol-4-yl}-2-(trifluoromethyl)quinoline-4-carboxamide] | 8.1
4 | Cc1nn(Cc2ccc(C(=O)NCCN3CCOCC3)cc2)c(C)c1NC(=O)c1cc(C(F)(F)F)nc2ccc(Br)cc12 [Example 136, 6-bromo-N-[3,5-dimethyl-1-(4-{[2-(morpholin-4-yl)ethyl]carbamoyl}benzyl)-1H-pyrazol-4-yl]-2-(trifluoromethyl)quinoline-4-carboxamide] | 9
5 | COCCNC(=O)c1ccc(Cn2nc(C)c(NC(=O)c3cc(C(F)(F)F)nc4ccc(Br)cc34)c2C)cc1 [Example 137, 6-bromo-N-(1-{4-[(2-methoxyethyl)carbamoyl]benzyl}-3,5-dimethyl-1H-pyrazol-4-yl)-2-(trifluoromethyl)quinoline-4-carboxamide] | 10.7
6 | Cc1nn(Cc2ccc(C(=O)NCc3cccnc3)cc2)c(C)c1NC(=O)c1cc(C(F)(F)F)nc2ccc(Br)cc12 [Example 138, 6-bromo-N-(3,5-dimethyl-1-{4-[(pyridin-3-ylmethyl)carbamoyl]benzyl}-1H-pyrazol-4-yl)-2-(trifluoromethyl)quinoline-4-carboxamide] | 18.1
7 | Cc1nn(Cc2ccc(C(=O)NCCO)cc2)c(C)c1NC(=O)c1cc(C(F)(F)F)nc2ccc(Br)cc12 [Example 139, 6-bromo-N-(1-{4-[(2-hydroxyethyl)carbamoyl]benzyl}-3,5-dimethyl-1H-pyrazol-4-yl)-2-(trifluoromethyl)quinoline-4-carboxamide] | 31.7
8 | Cc1nn(Cc2ccc(C(=O)N3CCOCC3)cc2)c(C)c1NC(=O)c1cc(C(F)(F)F)nc2ccc(Br)cc12 [Example 141, 6-bromo-N-{3,5-dimethyl-1-[4-(morpholin-4-ylcarbonyl)benzyl]-1H-pyrazol-4-yl}-2-(trifluoromethyl)quinoline-4-carboxamide] | 69.4
9 | Cc1nn(Cc2ccc(C(=O)NCCN(C)C)cc2)c(C)c1NC(=O)c1cc(C(F)(F)F)nc2ccc(Br)cc12 [Example 142, 6-bromo-N-[1-(4-{[2-(dimethylamino)ethyl]carbamoyl}benzyl)-3,5-dimethyl-1H-pyrazol-4-yl]-2-(trifluoromethyl)quinoline-4-carboxamide] | 70.7
10 | Cc1nn(Cc2ccc(F)cc2)c(C)c1NC(=O)c1cc(C2CCC2)nc2ccc(Br)cc12 [Example 146, 6-bromo-2-cyclobutyl-N-[1-(4-fluorobenzyl)-3,5-dimethyl-1H-pyrazol-4-yl]quinoline-4-carboxamide] | 7.9
11 | Cc1nn(Cc2ccc(C#N)nc2)c(C)c1NC(=O)c1cc(C(F)(F)F)nc2ccc(Br)cc12 [Example 147, 6-bromo-N-{1-[(6-cyanopyridin-3-yl)methyl]-3,5-dimethyl-1H-pyrazol-4-yl}-2-(trifluoromethyl)quinoline-4-carboxamide] | 8.2
12 | Cc1nn(Cc2ccc(Cl)cc2)c(C)c1NC(=O)c1cc(C(F)(F)F)nc2ccc(Br)cc12 [Example 148, 6-bromo-N-[1-(4-chlorobenzyl)-3,5-dimethyl-1H-pyrazol-4-yl]-2-(trifluoromethyl)quinoline-4-carboxamide] | 11.4
13 | CNC(=O)Cc1ccc(Cn2nc(C)c(NC(=O)c3cc(C(F)(F)F)nc4ccc(Br)cc34)c2C)cc1 [Example 153, 6-bromo-N-(3,5-dimethyl-1-{4-[2-(methylamino)-2-oxoethyl]benzyl}-1H-pyrazol-4-yl)-2-(trifluoromethyl)quinoline-4-carboxamide] | 95.8
14 | Cc1nn(Cc2ccc(CC(=O)NCc3ccccc3)cc2)c(C)c1NC(=O)c1cc(C(F)(F)F)nc2ccc(Br)cc12 [Example 154, N-(1-{4-[2-(benzylamino)-2-oxoethyl]benzyl}-3,5-dimethyl-1H-pyrazol-4-yl)-6-bromo-2-(trifluoromethyl)quinoline-4-carboxamide] | 196
15 | Cc1nn(Cc2ccc(CC(=O)Nc3ccccc3)cc2)c(C)c1NC(=O)c1cc(C(F)(F)F)nc2ccc(Br)cc12 [Example 155, 6-bromo-N-(3,5-dimethyl-1-{4-[2-oxo-2-(phenylamino)ethyl]benzyl}-1H-pyrazol-4-yl)-2-(trifluoromethyl)quinoline-4-carboxamide] | 312
16 | Cc1nn(Cc2ccc(CC(=O)N(C)C)cc2)c(C)c1NC(=O)c1cc(C(F)(F)F)nc2ccc(Br)cc12 [Example 156, 6-bromo-N-(1-{4-[2-(dimethylamino)-2-oxoethyl]benzyl}-3,5-dimethyl-1H-pyrazol-4-yl)-2-(trifluoromethyl)quinoline-4-carboxamide] | 354
17 | Cc1nn(Cc2ccc(CC(=O)N3CCOCC3)cc2)c(C)c1NC(=O)c1cc(C(F)(F)F)nc2ccc(Br)cc12 [Example 158, 6-bromo-N-(3,5-dimethyl-1-{4-[2-(morpholin-4-yl)-2-oxoethyl]benzyl}-1H-pyrazol-4-yl)-2-(trifluoromethyl)quinoline-4-carboxamide] | 521

Second part, the compound after the results:

Row | IC50 [nM] | SMILES
18 | 5560 | Cc1nn(Cc2ccc(C(=O)O)cc2)c(C)c1NC(=O)c1cc(C(F)(F)F)nc2ccc(Br)cc12 [Example 132, 4-{[4-({[6-bromo-2-(trifluoromethyl)quinolin-4-yl]carbonyl}amino)-3,5-dimethyl-1H-pyrazol-1-yl]methyl}benzoic acid]
19 | 5.6 | Cc1nn(Cc2ccc(C(N)=O)cc2)c(C)c1NC(=O)c1cc(C(F)(F)F)nc2ccc(Br)cc12 [Example 133, 6-bromo-N-[1-(4-carbamoylbenzyl)-3,5-dimethyl-1H-pyrazol-4-yl]-2-(trifluoromethyl)quinoline-4-carboxamide]
20 | 50 | Cc1nn(Cc2ccc(C(=O)NCc3ccccc3)cc2)c(C)c1NC(=O)c1cc(C(F)(F)F)nc2ccc(Br)cc12 [Example 140, N-{1-[4-(benzylcarbamoyl)benzyl]-3,5-dimethyl-1H-pyrazol-4-yl}-6-bromo-2-(trifluoromethyl)quinoline-4-carboxamide]
21 | 85.3 | Cc1nn(Cc2ccc(C(=O)N(C)C)cc2)c(C)c1NC(=O)c1cc(C(F)(F)F)nc2ccc(Br)cc12 [Example 143, 6-bromo-N-{1-[4-(dimethylcarbamoyl)benzyl]-3,5-dimethyl-1H-pyrazol-4-yl}-2-(trifluoromethyl)quinoline-4-carboxamide]
22 | 5.7 | Cc1nn(Cc2ccc(F)c(F)c2)c(C)c1NC(=O)c1cc(C2CCC2)nc2ccc(Br)cc12 [Example 144, 6-bromo-2-cyclobutyl-N-[1-(3,4-difluorobenzyl)-3,5-dimethyl-1H-pyrazol-4-yl]quinoline-4-carboxamide]
23 | 6.1 | Cc1nn(Cc2ccc(F)c(F)c2)c(C)c1NC(=O)c1cc(C2CC2)nc2ccc(Cl)cc12 [Example 145, 6-chloro-2-cyclopropyl-N-[1-(3,4-difluorobenzyl)-3,5-dimethyl-1H-pyrazol-4-yl]quinoline-4-carboxamide]
24 | 11.7 | COC(=O)c1ccc2nc(C(F)(F)F)cc(C(=O)Nc3c(C)nn(Cc4ccc(F)cc4)c3C)c2c1 [Example 149, methyl 4-{[1-(4-fluorobenzyl)-3,5-dimethyl-1H-pyrazol-4-yl]carbamoyl}-2-(trifluoromethyl)quinoline-6-carboxylate]
25 | 11.7 | COC(=O)Cc1ccc(Cn2nc(C)c(NC(=O)c3cc(C(F)(F)F)nc4ccc(Br)cc34)c2C)cc1 [Example 150, methyl (4-{[4-({[6-bromo-2-(trifluoromethyl)quinolin-4-yl]carbonyl}amino)-3,5-dimethyl-1H-pyrazol-1-yl]methyl}phenyl)acetate]
26 | 1280 | Cc1nn(Cc2ccc(CC(=O)O)cc2)c(C)c1NC(=O)c1cc(C(F)(F)F)nc2ccc(Br)cc12 [Example 151, (4-{[4-({[6-bromo-2-(trifluoromethyl)quinolin-4-yl]carbonyl}amino)-3,5-dimethyl-1H-pyrazol-1-yl]methyl}phenyl)acetic acid]
27 | 58.3 | Cc1nn(Cc2ccc(CC(N)=O)cc2)c(C)c1NC(=O)c1cc(C(F)(F)F)nc2ccc(Br)cc12 [Example 152, N-{1-[4-(2-amino-2-oxoethyl)benzyl]-3,5-dimethyl-1H-pyrazol-4-yl}-6-bromo-2-(trifluoromethyl)quinoline-4-carboxamide]
28 | 437 | Cc1nn(Cc2ccc(CC(=O)NCc3cccnc3)cc2)c(C)c1NC(=O)c1cc(C(F)(F)F)nc2ccc(Br)cc12 [Example 157, 6-bromo-N-[3,5-dimethyl-1-(4-{2-oxo-2-[(pyridin-3-ylmethyl)amino]ethyl}benzyl)-1H-pyrazol-4-yl]-2-(trifluoromethyl)quinoline-4-carboxamide]
